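GI50 = concentration required for 50% inhibition of growth. TGI: concentration producing complete growth inhibition.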
Columns and labels:
Experiment in all cases: inhibition of tumour cell growth, NCI panel, 384-well format
OVCAR-8 ovarian = test system: OVCAR-8 ovarian
NCI/ADR-RES ovarian = test system: NCI/ADR-RES ovarian
CCRF-CEM leukemia = test system: CCRF-CEM leukemia
SN12C renal = test system: SN12C renal
HOP-62 NSCLC = test system: HOP-62 NSCLC
BT-549 breast = test system: BT-549 breast
A498 renal = test system: A498 renal
MDA-MB-435 melanoma = test system: MDA-MB-435 melanoma
SF-295 CNS = test system: SF-295 CNS
NCI-H226 lung = test system: NCI-H226 lung
SF-539 CNS = test system: SF-539 CNS
CAKI-1 renal = test system: CAKI-1 renal
RXF 393 renal = test system: RXF 393 renal
TK-10 renal = test system: TK-10 renal
NCI-H522 lung = test system: NCI-H522 lung
SR leukemia = test system: SR leukemia
MALME-3M melanoma = test system: MALME-3M melanoma
T-47D breast = test system: T-47D breast
UACC-62 melanoma = test system: UACC-62 melanoma
PC-3 prostate = test system: PC-3 prostate
RPMI-8226 leukemia = test system: RPMI-8226 leukemia
HCT-116 colon = test system: HCT-116 colon
OVCAR-4 ovarian = test system: OVCAR-4 ovarian
OVCAR-5 ovarian = test system: OVCAR-5 ovarian
UACC-257 melanoma = test system: UACC-257 melanoma
ACHN renal = test system: ACHN renal
HT29 colon = test system: HT29 colon
DU-145 prostate = test system: DU-145 prostate
SK-MEL-28 melanoma = test system: SK-MEL-28 melanoma
UO-31 renal = test system: UO-31 renal
IGROV1 ovarian = test system: IGROV1 ovarian
OVCAR-3 ovarian = test system: OVCAR-3 ovarian
U251 glioblastoma = test system: U251 glioblastoma
HCT-15 colon = test system: HCT-15 colon
MDA-MB-231 breast = test system: MDA-MB-231 breast
SNB-19 CNS = test system: SNB-19 CNS
HL-60(TB) leukemia = test system: HL-60(TB) leukemia
HCC-2998 colon = test system: HCC-2998 colon
COLO 205 colon = test system: COLO 205 colon
NCI-H23 lung = test system: NCI-H23 lung
SF-268 CNS = test system: SF-268 CNS
SW-620 colon = test system: SW-620 colon
NCI-H322M lung = test system: NCI-H322M lung
K-562 leukemia = test system: K-562 leukemia
786-0 renal = test system: 786-0 renal
HOP-92 NSCLC = test system: HOP-92 NSCLC
MDA-MB-468 breast = test system: MDA-MB-468 breast
LOX IMVI melanoma = test system: LOX IMVI melanoma
NCI-H460 NSCLC = test system: NCI-H460 NSCLC
A549 NSCLC = test system: A549 NSCLC
SK-MEL-2 melanoma = test system: SK-MEL-2 melanoma
SK-OV-3 ovarian = test system: SK-OV-3 ovarian
KM12 colon = test system: KM12 colon
MOLT-4 leukemia = test system: MOLT-4 leukemia
SK-MEL-5 melanoma = test system: SK-MEL-5 melanoma
M14 melanoma = test system: M14 melanoma
MCF7 breast = test system: MCF7 breast

Cc1cc(NC(=O)c2ccc(NS(=O)(=O)CCO)cc2N2CCC3(CC2)CC3)nc(N2CCC(F)(F)CC2)n1
GI50 (OVCAR-8 ovarian): 0.0716 µM | TGI (OVCAR-8 ovarian): 2.61 µM | GI50 (NCI/ADR-RES ovarian): 0.101 µM | TGI (NCI/ADR-RES ovarian): 0.703 µM | GI50 (CCRF-CEM leukemia): 1.72 µM | TGI (CCRF-CEM leukemia): 3.12 µM | GI50 (SN12C renal): 1.85 µM | TGI (SN12C renal): 3.53 µM | GI50 (HOP-62 NSCLC): 1.94 µM | TGI (HOP-62 NSCLC): 3.65 µM | GI50 (BT-549 breast): 0.0246 µM | TGI (BT-549 breast): 1.26 µM | GI50 (A498 renal): 0.484 µM | TGI (A498 renal): 2.35 µM | GI50 (MDA-MB-435 melanoma): 0.686 µM | TGI (MDA-MB-435 melanoma): 5.3 µM | GI50 (SF-295 CNS): 0.373 µM | TGI (SF-295 CNS): 1.14 µM | GI50 (NCI-H226 lung): 1.57 µM | TGI (NCI-H226 lung): 3.13 µM | GI50 (SF-539 CNS): 0.0537 µM | TGI (SF-539 CNS): 0.391 µM | GI50 (CAKI-1 renal): 1.89 µM | TGI (CAKI-1 renal): 6.28 µM | GI50 (RXF 393 renal): 0.0135 µM | TGI (RXF 393 renal): 0.0666 µM | GI50 (TK-10 renal): 2.16 µM | TGI (TK-10 renal): 4.76 µM | GI50 (NCI-H522 lung): 1.86 µM | TGI (NCI-H522 lung): 4.33 µM | GI50 (SR leukemia): 0.0221 µM | TGI (SR leukemia): 0.135 µM | GI50 (MALME-3M melanoma): 0.614 µM | TGI (MALME-3M melanoma): 3.42 µM | GI50 (T-47D breast): 0.694 µM | TGI (T-47D breast): 14.1 µM | GI50 (UACC-62 melanoma): 1.59 µM | TGI (UACC-62 melanoma): 3.49 µM | GI50 (PC-3 prostate): 1.85 µM | TGI (PC-3 prostate): 3.39 µM | GI50 (RPMI-8226 leukemia): 1.59 µM | TGI (RPMI-8226 leukemia): 2.95 µM | GI50 (HCT-116 colon): 1.44 µM | TGI (HCT-116 colon): 2.85 µM | GI50 (OVCAR-4 ovarian): 0.258 µM | TGI (OVCAR-4 ovarian): 1.3 µM | GI50 (OVCAR-5 ovarian): 2.01 µM | TGI (OVCAR-5 ovarian): 4.7 µM | GI50 (UACC-257 melanoma): 0.39 µM | TGI (UACC-257 melanoma): 1.96 µM | GI50 (ACHN renal): 2.02 µM | TGI (ACHN renal): 4.94 µM | GI50 (HT29 colon): 0.0317 µM | TGI (HT29 colon): 0.152 µM | GI50 (DU-145 prostate): 0.0563 µM | TGI (DU-145 prostate): 2.7 µM | GI50 (SK-MEL-28 melanoma): 0.792 µM | TGI (SK-MEL-28 melanoma): 5.84 µM | GI50 (UO-31 renal): 1.25 µM | TGI (UO-31 renal): 2.89 µM | GI50 (IGROV1 ovarian): 1.94 µM | TGI (IGROV1 ovarian): 4.96 µM | TGI (OVCAR-3 ovarian): 0.0235 µM | GI50 (U251 glioblastoma): 0.0608 µM | TGI (U251 glioblastoma): 0.479 µM | GI50 (HCT-15 colon): 1.66 µM | TGI (HCT-15 colon): 3.06 µM | GI50 (MDA-MB-231 breast): 0.0743 µM | TGI (MDA-MB-231 breast): 2.48 µM | GI50 (SNB-19 CNS): 1.44 µM | TGI (SNB-19 CNS): 3.11 µM | GI50 (HL-60(TB) leukemia): 2.2 µM | TGI (HL-60(TB) leukemia): 3.67 µM | GI50 (HCC-2998 colon): 0.0725 µM | TGI (HCC-2998 colon): 0.402 µM | GI50 (COLO 205 colon): 1.66 µM | TGI (COLO 205 colon): 3.28 µM | GI50 (NCI-H23 lung): 1.31 µM | TGI (NCI-H23 lung): 2.67 µM | GI50 (SF-268 CNS): 1.42 µM | TGI (SF-268 CNS): 3.31 µM | GI50 (SW-620 colon): 1.65 µM | TGI (SW-620 colon): 3.14 µM | GI50 (NCI-H322M lung): 0.564 µM | TGI (NCI-H322M lung): 3.37 µM | GI50 (K-562 leukemia): 1.57 µM | TGI (K-562 leukemia): 3.04 µM | GI50 ([…]-0 renal): 1.63 µM | TGI (786-0 renal): 3.07 µM | GI50 (HOP-92 NSCLC): 1.89 µM | TGI (HOP-92 NSCLC): 3.41 µM | GI50 (MDA-MB-468 breast): 0.0352 µM | TGI (MDA-MB-468 breast): 0.648 µM | GI50 (LOX IMVI melanoma): 2.12 µM | TGI (LOX IMVI melanoma): 3.58 µM | GI50 (NCI-H460 NSCLC): 0.298 µM | TGI (NCI-H460 NSCLC): 1.05 µM | GI50 (A549 NSCLC): 2.53 µM | TGI (A549 NSCLC): 6.67 µM | GI50 (SK-MEL-2 melanoma): 0.0899 µM | TGI (SK-MEL-2 melanoma): 2.91 µM | GI50 (SK-OV-3 ovarian): 0.0895 µM | TGI (SK-OV-3 ovarian): 5.81 µM | GI50 (KM12 colon): 0.694 µM | TGI (KM12 colon): 2.18 µM | GI50 (MOLT-4 leukemia): 1.76 µM | TGI (MOLT-4 leukemia): 3.18 µM | GI50 (SK-MEL-5 melanoma): 1.68 µM | TGI (SK-MEL-5 melanoma): 3.07 µM | GI50 (M14 melanoma): 0.328 µM | TGI (M14 melanoma): 1.25 µM | GI50 (MCF7 breast): 2.09 µM | TGI (MCF7 breast): 4.91 µM
